Drawing on patent publication US9783521B2, “PDE10 inhibitors and related compositions and methods” (Omeros Corporation, priority 2008, dated 2017), this text covers IC50 for 13 compounds.

T1 sequence (Q9Y233 1-779 isoform Q9Y233-1): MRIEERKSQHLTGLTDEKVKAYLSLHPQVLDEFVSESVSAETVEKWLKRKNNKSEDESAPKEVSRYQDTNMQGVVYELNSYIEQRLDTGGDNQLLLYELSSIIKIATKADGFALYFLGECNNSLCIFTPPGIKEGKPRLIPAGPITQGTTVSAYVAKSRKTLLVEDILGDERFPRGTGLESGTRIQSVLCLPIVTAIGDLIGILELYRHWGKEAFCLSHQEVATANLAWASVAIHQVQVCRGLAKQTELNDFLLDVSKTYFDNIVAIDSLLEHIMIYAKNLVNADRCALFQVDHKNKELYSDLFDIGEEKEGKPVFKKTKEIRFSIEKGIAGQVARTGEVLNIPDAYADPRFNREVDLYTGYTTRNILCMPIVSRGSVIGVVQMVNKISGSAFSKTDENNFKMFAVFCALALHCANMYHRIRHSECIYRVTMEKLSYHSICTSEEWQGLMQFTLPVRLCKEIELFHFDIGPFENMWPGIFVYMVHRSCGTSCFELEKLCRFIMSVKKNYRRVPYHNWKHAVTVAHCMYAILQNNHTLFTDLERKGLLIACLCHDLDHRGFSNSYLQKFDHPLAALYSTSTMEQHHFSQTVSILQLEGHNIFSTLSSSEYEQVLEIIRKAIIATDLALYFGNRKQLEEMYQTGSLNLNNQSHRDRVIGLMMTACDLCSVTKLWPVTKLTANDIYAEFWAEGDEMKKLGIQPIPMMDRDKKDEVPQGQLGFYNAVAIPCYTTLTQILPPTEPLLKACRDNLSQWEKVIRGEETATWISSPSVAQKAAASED

This experiment concerns the target T1, recombinant human PDE 10A1 (Homo sapiens, UniProt Q9Y233).
T1 construct: made in house; host or cells: Sf9 insect cells, baculoviral system
Description: PDE10 biochemical assay (two-step Thompson and Appleman method or SPA). The conditions noted are these: PDE10 inhibition; read-out: IC50. On the procedure: After the appropriate incubation time, the reaction is terminated by heating. The mixture is then subjected to treatment with snake venom phosphatase. […] IC50 values can be calculated by performing the experiment at several concentrations using standard graphical means. A detailed description of the actual technique used for IC50 assays as set forth in following Examples.
The phosphodiesterase (PDE) assay was performed using recombinant human PDE 1A3, 2A3, 3 catalytic region, 4 catalytic region, 5 catalytic region, 7A, 8A, 9A2, 10A1 and 11A1 enzymes expressed in a baculoviral system using Sf9 cells. PDE activity was measured using a modification of the two-step method of Thompson and Appleman described above which was adapted for 96 well plate format. […] Reactions were initiated with enzyme and incubated with (^3H)-substrate and substance for 20 minutes at 30° C. The reaction was terminated by denaturing the enzyme (heating the reaction to 70° C. for 2 minutes). The reaction was then cooled at 4° C. for 10 minutes before the addition of snake venom (Crotalus atrox, 0.2 mg/ml) for 10 minutes at 30° C., thus allowing non-specific hydrolysis of the tritiated substrate. Separation of the remaining unhydrolysed cyclic nucleotide was achieved by a batch binding of the mixture to activated Dowex (200 μl) anion exchange resin. The anion exchange resin bound the charged nucleotides, leaving only hydrolysed (^3H) substrate in the soluble fraction. The soluble fraction (50 μl) was then added to microscint-20 (200 μl) and counted on a Top Count Plate reader. Radioactivity units were plotted against inhibitor concentration and IC50 values obtained using Graph Pad Prism software.
Alternatively, phosphodiesterase activity was measured by scintillation proximity assay (SPA) with [^3H]-cGMP as substrate. Purified PDE10 was diluted and stored in 25 mM Tris-Cl (pH 8.0)/100 mM NaCl/0.05% Tween 20/50% glycerol/3 mM DTT. Assays contained (final concentrations): 50 mM Tris-Cl (pH 7.5)/8.3 mM MgCl2/1.7 mM EGTA/0.5 mg/ml BSA/5% DMSO and 2 ng PDE10 in a final volume of 0.1 mL. Inhibition was evaluated at 8 concentrations in duplicate. Reactions were initiated by addition of enzyme and were terminated after 20 minutes at 30° C. by the addition of 50 μl of SPA beads containing Zn^++. The mixture was shaken, allowed to settle for 3 hours, and counted in a Wallac plate counter. Results (net cpm) were fitted to a four parameter logistic model using Excel Solver®.
Usually IC50 stands for the midpoint of a concentration-inhibition curve. For `COc1cc(/C=N/NC(=O)C(OC)c2ccc(F)cc2)cc(Br)c1OC` (stereo not shown) [Compound 12-3], the 50% inhibitory concentration (IC50) is at most 1000 nM.
The value for `CCOC(C(=O)N/N=C/c1cc(OC)c(Br)c(OC)c1)c1ccc2c(c1)OCCN2C` (stereo not shown) [Compound 12-84] was at most 1000 nM.
In the case of `COc1ccc(C(OC)C(=O)N/N=C/c2ccc(OC)c(OC)c2)cc1` (stereo not shown) [Compound 12-19], the 50% inhibitory concentration (IC50) was at most 1000 nM.
The value for `COc1cc(/C=N/NC(=O)C(OC)c2cnc3ccccc3c2)cc(OC)c1OC` (stereo not shown) [Compound 12-61] was at most 1000 nM.
The value for `COc1cc(/C=N/NC(=O)C(OC)c2ccc(Cl)cc2)ccc1C#N` (stereo not shown) [Compound 12-22] was at most 1000 nM.
The value for `CCOC(C(=O)N/N=C/c1cc(OC)c(OC)c(OC)c1)c1cccc2ncccc12` (stereo not shown) [Compound 12-59] was at most 1000 nM; that for `COc1cc(/C=N/NC(=O)Cc2ccc(N3CCOCC3)cc2)cc(OC)c1Br` [Compound 12-139] was at most 1000 nM.
On to `COc1cc(/C(C)=N/NC(=O)C(OC)c2ccccc2)cc(OC)c1OC` (stereo not shown) [Compound 12-69], for which the IC50 is at most 1000 nM.
As for `CCOC(C(=O)N/N=C/c1cc(OC)c(OC)c(OC)c1)c1cccc2c1OCCO2` (stereo not shown) [Compound 12-130], the IC50 is at most 1000 nM.
The value for `COc1cc(/C=N/NC(=O)C(OC)c2cccc3ncccc23)cc(OC)c1OC` (stereo not shown) [Compound 6-1, (E)-2-methoxy-2-(quinolin-5-yl)-N′-(3,4,5-trimethoxybenzylidene)acetohydrazide] was at most 1000 nM; that for `COc1cc(/C=N/NC(=O)C(OC)c2ccccc2)cc(OC)c1` (stereo not shown) [Compound 12-25] was at most 1000 nM; that for `COc1cc(/C=N/NC(=O)C(OC)c2cccc3ccccc23)cc(OC)c1OC` (stereo not shown) [Compound 12-13] was at most 1000 nM.
With `COc1cc(/C=N/NC(=O)C(OCCN(C)C)c2ccc3ccccc3c2)cc(OC)c1Br` (stereo not shown) [Compound 12-123], the IC50 is at most 1000 nM.
